How the values were obtained:
Assay in all cases: gel filtration, radiolabeled GTP
Settings in all cases: reduced relative to wild type
[1] = test system: c-MYC transcriptional repressor mut (DNA, G4) GGGTAGGAAGGGTAGGA
[2] = test system: VEGF IRES mut (RNA, G4) UGAUGAGUGUGAGGAGGA
[3] = test system: NRAS translational repressor mut (RNA, G4) GGUAGGGUCGGUUCUGGU

binding [1]: weak | binding [2]: weak | binding [3]: weak
Compound: Nc1nc2c(ncn2[C@@H]2O[C@H](COP(=O)(O)OP(=O)(O)OP(=O)(O)O)[C@@H](O)[C@H]2O)c(=O)[nH]1

Reference: publication PMC3703636 (2013)
